# Measurements from EPA's ToxRefDB 2.
# Assays:
# rat [1] = details: Prenatal developmental toxicity study, sprague dawley, Oral, Gavage/Intubation, dose end: 19 GD
# rat [2] = details: Subchronic oral toxicity in rodents, sprague dawley, Feed, dose end: 3 month, group: systemic, systemic / clinical chemistry / glucose / glucose + systemic / clinical chemistry / phosphorus / phosphorus + systemic / clinical chemistry…
# rat [3] = details: Combined chronic toxicity/carcinogenicity, sprague dawley, Oral, Feed, dose end: 24 month, group: systemic
# mouse [4] = details: Carcinogenicity; cd1; Oral; Feed; dose end: 24 month; group: systemic; systemic / in life observation / body weight / body weight + systemic / pathology microscopic / kidney / basophilia + systemic / pathology …
# rat [5] = details: Multigenerational reproductive toxicity study, sprague dawley, Oral, Feed, dose end: 2 generation
# mouse [6] = details: Carcinogenicity, cd1, Oral, Feed, dose end: 18 month, group: systemic
# rat [7] = details: Combined chronic toxicity/carcinogenicity, sprague dawley, Oral, Feed, dose end: 2 year, group: systemic
# rat [8] = details: Subchronic oral toxicity in rodents, other, Feed, dose end: 90 day, group: systemic
# dog [9] = details: Chronic toxicity; beagle; Oral; Feed; dose end: 1 year; group: systemic; systemic / organ weight / kidney / absolute + systemic / pathology gross / liver / enlarged + systemic / pathology microscopic / epididymis…
# rat [10] = details: Multigenerational reproductive toxicity study, other, Oral, Feed, dose end: 2 generation
# dog [11] = details: Subchronic oral toxicity in nonrodent, beagle, Feed, dose end: 90 day, group: systemic
# [12] = group: developmental, developmental / developmental malformation / bone / unossified + systemic / in life observation / body weight / fetal weight
# [13] = group: maternal, systemic / in life observation / body weight / body weight gain + systemic / in life observation / clinical signs / defecation (diarrhea) + …
# [14] = systemic / pathology microscopic / stomach / inflammation
# [15] = systemic / pathology microscopic / stomach / inflammation + systemic / in life observation / body weight / body weight + systemic / in life …
# [16] = group: offspring, systemic / in life observation / body weight / offspring (pup) weight + systemic / in life observation / body weight / offspring (pup) …
# [17] = group: parental, systemic / in life observation / body weight / body weight + systemic / in life observation / clinical signs / soft stools
# [18] = group: parental, systemic / in life observation / body weight / body weight + systemic / in life observation / clinical signs / soft stools + systemic / in …
# [19] = systemic / in life observation / body weight / body weight + systemic / pathology microscopic / stomach / cyst + systemic / pathology …
# [20] = systemic / in life observation / body weight / body weight gain + systemic / organ weight / liver / relative to body weight + systemic / …
# [21] = systemic / clinical chemistry / alanine aminotransferase (alt/sgpt) / alanine aminotransferase (alt/sgpt) + systemic / clinical chemistry / …
# [22] = group: offspring, systemic / in life observation / body weight / offspring (pup) weight + systemic / in life observation / clinical signs / reduced body size
# [23] = group: parental, systemic / in life observation / body weight / body weight gain
# [24] = group: reproductive, reproductive / reproductive performance / gestational length / gestational length
# [25] = systemic / urinalysis / specific gravity/osmolality / specific gravity/osmolality + systemic / urinalysis / volume / volume
smiles,measurement,setting,value
O=C(O)CNCP(=O)(O)O [Glyphosate],LEL,rat [1]; [12],3500 mg/kg/day
same,LOAEL,rat [1]; [12],3500 mg/kg/day
same,NEL,rat [1]; [12],1000 mg/kg/day
same,NOAEL,rat [1]; [12],1000 mg/kg/day
same,LEL,rat [1]; [13],3500 mg/kg/day
same,LOAEL,rat [1]; [13],3500 mg/kg/day
same,NEL,rat [1]; [13],1000 mg/kg/day
same,NOAEL,rat [1]; [13],1000 mg/kg/day
same,LEL,rat [2],63 mg/kg/day
same,LOAEL,rat [2],> 1270 mg/kg/day
same,NEL,rat [2],< 63 mg/kg/day
same,NOAEL,rat [2],≥ 1270 mg/kg/day
same,LEL,rat [3]; [14],457 mg/kg/day
same,LOAEL,rat [3]; [14],457 mg/kg/day
same,NEL,rat [3]; [15],113 mg/kg/day
same,NOAEL,rat [3]; [15],113 mg/kg/day
same,LEL,mouse [4],4500 mg/kg/day
same,LOAEL,mouse [4],4500 mg/kg/day
same,NEL,mouse [4],750 mg/kg/day
same,NOAEL,mouse [4],750 mg/kg/day
same,LEL,rat [5]; [16],1500 mg/kg/day
same,LOAEL,rat [5]; [16],1500 mg/kg/day
same,NEL,rat [5]; [16],500 mg/kg/day
same,NOAEL,rat [5]; [16],500 mg/kg/day
same,NEL,rat [5]; [17],500 mg/kg/day
same,NOAEL,rat [5]; [17],500 mg/kg/day
same,LEL,rat [5]; [18],1500 mg/kg/day
same,LOAEL,rat [5]; [18],1500 mg/kg/day
CCS(=O)(=O)c1cccnc1S(=O)(=O)NC(=O)Nc1nc(OC)cc(OC)n1 [Rimsulfuron],LOAEL,mouse [6]; [19],1130 mg/kg/day
same,NEL,mouse [6]; [19],3.47 mg/kg/day
same,NOAEL,mouse [6]; [19],351 mg/kg/day
same,LEL,mouse [6]; systemic / pathology microscopic / testes / degeneration,35.5 mg/kg/day
same,LEL,rat [7]; systemic / clinical chemistry / alkaline phosphatase (alp/alk) / alkaline phosphatase (alp/alk),11.8 mg/kg/day
same,LOAEL,rat [7]; systemic / in life observation / body weight / body weight gain + systemic / organ weight / liver / relative to body weight,121 mg/kg/day
same,NEL,rat [7]; [20],1 mg/kg/day
same,NOAEL,rat [7]; [20],11.8 mg/kg/day
same,LEL,rat [8]; [21],3.35 mg/kg/day
same,NEL,rat [8]; [21],< 3.35 mg/kg/day
same,NOAEL,rat [8]; [21],102 mg/kg/day
same,LOAEL,rat [8]; systemic / in life observation / body weight / body weight gain,495 mg/kg/day
same,LEL,dog [9],81.8 mg/kg/day
same,LOAEL,dog [9],81.8 mg/kg/day
same,NEL,dog [9],1.6 mg/kg/day
same,NOAEL,dog [9],1.6 mg/kg/day
same,LEL,rat [10]; [22],1320 mg/kg/day
same,LOAEL,rat [10]; [22],1320 mg/kg/day
same,NEL,rat [10]; [22],264 mg/kg/day
same,NOAEL,rat [10]; [22],264 mg/kg/day
same,LEL,rat [10]; [23],830 mg/kg/day
same,LOAEL,rat [10]; [23],830 mg/kg/day
same,NEL,rat [10]; [23],165 mg/kg/day
same,NOAEL,rat [10]; [23],165 mg/kg/day
same,LEL,rat [10]; [24],1020 mg/kg/day
same,LOAEL,rat [10]; [24],> 1020 mg/kg/day
same,NEL,rat [10]; [24],204 mg/kg/day
same,NOAEL,rat [10]; [24],≥ 1020 mg/kg/day
same,LEL,dog [11]; [25],6.25 mg/kg/day
same,LOAEL,dog [11]; [25],125 mg/kg/day
same,NEL,dog [11]; [25],< 6.25 mg/kg/day
same,NOAEL,dog [11]; systemic / urinalysis / specific gravity/osmolality / specific gravity/osmolality + systemic / urinalysis / volume / volume + systemic / …,6.25 mg/kg/day
